Assay [1] deals with T1, Sentrin-specific protease 7 (Homo sapiens, UniProt Q9BQF6).
T1 sequence (Q9BQF6 whole entry): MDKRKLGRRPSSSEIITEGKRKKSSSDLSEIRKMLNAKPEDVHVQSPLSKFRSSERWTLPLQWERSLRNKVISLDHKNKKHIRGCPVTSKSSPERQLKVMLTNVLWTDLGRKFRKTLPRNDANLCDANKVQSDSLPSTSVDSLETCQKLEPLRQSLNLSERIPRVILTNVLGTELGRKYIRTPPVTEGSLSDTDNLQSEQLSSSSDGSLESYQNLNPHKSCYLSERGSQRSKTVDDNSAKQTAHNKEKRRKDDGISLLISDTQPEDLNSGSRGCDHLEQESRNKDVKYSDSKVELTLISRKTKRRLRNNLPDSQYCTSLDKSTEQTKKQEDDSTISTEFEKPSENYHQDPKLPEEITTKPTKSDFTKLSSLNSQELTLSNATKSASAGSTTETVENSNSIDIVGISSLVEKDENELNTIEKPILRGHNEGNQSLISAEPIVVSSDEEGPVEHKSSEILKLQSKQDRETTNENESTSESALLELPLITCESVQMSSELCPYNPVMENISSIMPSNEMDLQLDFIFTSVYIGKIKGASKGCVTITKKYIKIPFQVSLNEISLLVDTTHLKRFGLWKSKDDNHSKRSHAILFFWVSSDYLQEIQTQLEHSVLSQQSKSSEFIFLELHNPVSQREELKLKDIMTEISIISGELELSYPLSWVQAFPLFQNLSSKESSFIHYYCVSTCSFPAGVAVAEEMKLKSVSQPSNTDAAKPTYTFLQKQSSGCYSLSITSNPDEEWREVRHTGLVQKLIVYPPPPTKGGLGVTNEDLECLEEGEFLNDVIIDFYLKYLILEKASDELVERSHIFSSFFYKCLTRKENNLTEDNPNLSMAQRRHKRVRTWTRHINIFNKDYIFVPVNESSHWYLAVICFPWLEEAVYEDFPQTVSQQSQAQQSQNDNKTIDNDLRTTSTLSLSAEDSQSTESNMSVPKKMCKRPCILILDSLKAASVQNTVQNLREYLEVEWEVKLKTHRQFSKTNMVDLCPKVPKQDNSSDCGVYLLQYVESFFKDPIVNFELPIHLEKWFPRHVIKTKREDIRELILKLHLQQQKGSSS
Briefly: inhibition of human SENP7 cleavage activity – biochemical, luminescence, SAR follow-up (AID 504497). The assay is classed as functional.

In assay [2] the target is T2, Caspase-3 (Homo sapiens, UniProt P42574).
T2 sequence (P42574 whole entry): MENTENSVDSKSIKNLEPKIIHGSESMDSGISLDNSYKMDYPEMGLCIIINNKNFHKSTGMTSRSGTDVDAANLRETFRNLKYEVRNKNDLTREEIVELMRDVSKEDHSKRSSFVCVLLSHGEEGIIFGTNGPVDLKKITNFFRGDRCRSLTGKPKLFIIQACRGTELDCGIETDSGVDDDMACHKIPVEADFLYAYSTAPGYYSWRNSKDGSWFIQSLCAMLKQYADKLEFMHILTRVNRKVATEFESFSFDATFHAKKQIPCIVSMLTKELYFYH
The class given is functional.

Assay [3] deals with T3, Sentrin-specific protease 8 (Homo sapiens, UniProt Q96LD8).
T3 sequence (Q96LD8 whole entry): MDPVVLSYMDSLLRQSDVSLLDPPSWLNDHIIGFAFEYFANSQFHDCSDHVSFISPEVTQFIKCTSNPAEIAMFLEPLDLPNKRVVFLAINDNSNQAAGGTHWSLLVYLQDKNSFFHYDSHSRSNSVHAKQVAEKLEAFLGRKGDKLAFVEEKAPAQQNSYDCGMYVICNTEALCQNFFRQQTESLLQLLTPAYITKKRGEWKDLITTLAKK
As to the kind of experiment: inhibition of human SENP8 cleavage activity – biochemical, luminescence, SAR follow-up (AID 504501). The assay is classed as functional.

Assay [4] addresses T2, Caspase-3. As to the kind of experiment: SAR Analysis of small molecule inhibitors of Sentrin-specific proteases (SENPs) using a Caspase-3 Selectivity assay. [Related pubchem assays (depositor defined):AID2540, AID2599, AID434973, AID489001]. The class given is functional.
The test system of another assay is HT-1080. Briefly: HT1080 cell viability loss – fluorescence readout (AID 620). The class given is functional, cell-based. To be noted: Homo sapiens.
Assay [5] deals with Luciferin 4-monooxygenase (Photinus pyralis, UniProt P08659). As to the kind of experiment: Counter Screen for Luciferase-based Assay Positives. [Related pubchem assays: 620, 618, 411 ]. For orientation: Counterscreens check selectivity or assay interference.
Sequence of Luciferin 4-monooxygenase (P08659 whole entry): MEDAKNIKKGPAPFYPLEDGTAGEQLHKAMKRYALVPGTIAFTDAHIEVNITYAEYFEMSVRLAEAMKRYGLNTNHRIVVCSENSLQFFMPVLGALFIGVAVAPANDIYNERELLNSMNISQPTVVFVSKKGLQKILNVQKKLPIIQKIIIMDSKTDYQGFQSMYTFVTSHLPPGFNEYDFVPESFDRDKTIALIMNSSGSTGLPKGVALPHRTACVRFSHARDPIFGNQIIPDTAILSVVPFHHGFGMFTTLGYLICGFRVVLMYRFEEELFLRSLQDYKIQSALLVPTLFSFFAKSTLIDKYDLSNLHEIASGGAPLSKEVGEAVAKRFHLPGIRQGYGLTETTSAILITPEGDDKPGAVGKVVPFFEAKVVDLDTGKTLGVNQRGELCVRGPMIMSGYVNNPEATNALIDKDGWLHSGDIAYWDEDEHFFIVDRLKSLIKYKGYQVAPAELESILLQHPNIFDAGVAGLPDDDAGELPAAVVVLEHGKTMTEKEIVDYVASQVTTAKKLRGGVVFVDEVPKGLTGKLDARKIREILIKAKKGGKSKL
The target of assay [6] is T1, Sentrin-specific protease 7. The assay is classed as functional.
Assay [7] deals with T4, Sentrin-specific protease 6 (Homo sapiens, UniProt Q9GZR1).
T4 sequence (Q9GZR1 whole entry): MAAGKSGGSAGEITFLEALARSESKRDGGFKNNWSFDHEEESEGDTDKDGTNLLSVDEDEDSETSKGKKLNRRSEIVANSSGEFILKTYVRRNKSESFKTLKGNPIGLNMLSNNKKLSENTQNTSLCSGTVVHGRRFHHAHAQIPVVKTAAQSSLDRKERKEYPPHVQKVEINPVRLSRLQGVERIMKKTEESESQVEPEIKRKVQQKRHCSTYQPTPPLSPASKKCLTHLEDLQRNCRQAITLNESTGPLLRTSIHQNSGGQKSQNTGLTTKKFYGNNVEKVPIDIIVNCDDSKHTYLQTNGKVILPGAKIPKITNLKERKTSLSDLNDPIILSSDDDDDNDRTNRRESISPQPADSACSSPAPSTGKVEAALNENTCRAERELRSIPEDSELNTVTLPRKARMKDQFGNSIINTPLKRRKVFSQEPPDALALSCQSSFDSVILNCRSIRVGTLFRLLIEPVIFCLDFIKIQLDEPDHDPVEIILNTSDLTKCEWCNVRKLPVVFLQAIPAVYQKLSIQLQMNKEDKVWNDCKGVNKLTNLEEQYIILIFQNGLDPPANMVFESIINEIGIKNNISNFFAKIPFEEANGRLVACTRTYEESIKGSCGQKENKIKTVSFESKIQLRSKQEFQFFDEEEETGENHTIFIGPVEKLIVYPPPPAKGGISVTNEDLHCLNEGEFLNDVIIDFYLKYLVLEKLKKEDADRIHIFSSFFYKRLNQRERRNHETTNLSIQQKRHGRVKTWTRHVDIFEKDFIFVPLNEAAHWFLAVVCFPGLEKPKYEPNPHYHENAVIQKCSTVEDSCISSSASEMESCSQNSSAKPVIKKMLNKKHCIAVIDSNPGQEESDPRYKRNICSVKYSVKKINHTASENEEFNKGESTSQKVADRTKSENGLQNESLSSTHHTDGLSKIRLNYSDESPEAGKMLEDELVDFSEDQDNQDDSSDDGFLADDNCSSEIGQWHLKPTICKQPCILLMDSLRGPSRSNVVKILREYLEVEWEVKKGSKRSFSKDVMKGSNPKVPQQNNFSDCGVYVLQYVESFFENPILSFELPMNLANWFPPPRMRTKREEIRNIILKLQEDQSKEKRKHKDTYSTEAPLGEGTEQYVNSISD
Briefly: SAR Analysis of small molecule inhibitors of Sentrin-specific protease 6 (SENP6) using a Luminescent assay. [Related pubchem assays (depositor defined):AID2582, AID2599]. The class given is functional.

The target of assay [8] is T3, Sentrin-specific protease 8. The class given is functional.
Assay [9] concerns the target T4, Sentrin-specific protease 6. The class given is functional.
Assay [10] deals with T5, Heat shock factor protein 1 (Mus musculus, UniProt P38532).
T5 sequence (P38532 whole entry): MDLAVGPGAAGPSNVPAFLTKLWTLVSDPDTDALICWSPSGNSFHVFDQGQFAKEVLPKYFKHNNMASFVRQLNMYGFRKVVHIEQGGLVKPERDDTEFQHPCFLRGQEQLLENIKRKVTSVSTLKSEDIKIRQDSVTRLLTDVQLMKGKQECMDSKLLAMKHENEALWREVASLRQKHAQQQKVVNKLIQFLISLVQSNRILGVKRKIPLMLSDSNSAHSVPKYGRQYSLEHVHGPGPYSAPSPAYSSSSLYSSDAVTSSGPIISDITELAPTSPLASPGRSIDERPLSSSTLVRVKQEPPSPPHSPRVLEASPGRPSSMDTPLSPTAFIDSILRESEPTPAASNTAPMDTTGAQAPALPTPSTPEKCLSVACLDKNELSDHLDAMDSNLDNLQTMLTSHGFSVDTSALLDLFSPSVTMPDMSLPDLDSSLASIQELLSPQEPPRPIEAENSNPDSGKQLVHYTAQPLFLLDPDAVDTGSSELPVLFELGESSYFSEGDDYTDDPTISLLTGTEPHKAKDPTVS
Briefly: decrease of HSF1-responsive luciferase luminescence – cell-based, NIH3T3, dose retest, confirmation (AID 2382).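 Note: NIH3T3 fibroblasts with HSF1-driven luciferase reporter stressed by proteasome inhibitor MG132; luminescence from HSF1-driven luciferase expression after 8 hours of MG132 stress.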 The assay is classed as functional.

The target of assay [11] is T6, Insulin-degrading enzyme (Homo sapiens, UniProt P14735).
T6 sequence (P14735 whole entry): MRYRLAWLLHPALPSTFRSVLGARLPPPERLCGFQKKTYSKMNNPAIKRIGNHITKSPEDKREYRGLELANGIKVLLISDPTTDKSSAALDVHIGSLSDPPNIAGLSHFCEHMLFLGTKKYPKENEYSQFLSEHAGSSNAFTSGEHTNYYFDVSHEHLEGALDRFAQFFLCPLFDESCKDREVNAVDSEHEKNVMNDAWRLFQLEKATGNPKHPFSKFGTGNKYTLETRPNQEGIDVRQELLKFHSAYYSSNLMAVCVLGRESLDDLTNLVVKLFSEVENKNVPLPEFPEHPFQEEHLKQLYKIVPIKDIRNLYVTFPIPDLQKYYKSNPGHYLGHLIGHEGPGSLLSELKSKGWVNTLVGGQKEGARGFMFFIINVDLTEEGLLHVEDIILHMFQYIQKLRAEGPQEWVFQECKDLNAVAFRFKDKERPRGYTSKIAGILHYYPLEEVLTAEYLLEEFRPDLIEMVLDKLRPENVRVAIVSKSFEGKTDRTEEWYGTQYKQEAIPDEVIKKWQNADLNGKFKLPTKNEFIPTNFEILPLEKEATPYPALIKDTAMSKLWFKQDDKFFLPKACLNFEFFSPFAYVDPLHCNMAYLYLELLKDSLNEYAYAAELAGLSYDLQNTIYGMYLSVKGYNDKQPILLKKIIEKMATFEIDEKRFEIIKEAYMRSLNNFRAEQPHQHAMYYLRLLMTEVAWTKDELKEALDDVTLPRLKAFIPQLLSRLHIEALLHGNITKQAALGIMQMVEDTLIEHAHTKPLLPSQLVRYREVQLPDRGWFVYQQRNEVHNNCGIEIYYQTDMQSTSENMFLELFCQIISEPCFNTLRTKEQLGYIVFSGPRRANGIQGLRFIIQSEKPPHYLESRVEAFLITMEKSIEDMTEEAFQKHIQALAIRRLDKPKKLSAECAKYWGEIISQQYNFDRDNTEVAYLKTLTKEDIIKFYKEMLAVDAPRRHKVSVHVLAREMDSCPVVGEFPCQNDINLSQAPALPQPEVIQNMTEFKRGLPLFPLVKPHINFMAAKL
As to the kind of experiment: recombinant IDE activation, cell-free – biochemical, fluorescence polarization, counter-screen for IDE activator project, dose response (AID 588681). (In general: Polarisation of emitted light reports the rotation of a fluorescent probe.)

The test system of assay [12] is HEK293. Briefly: optical interference in Abeta FP readout, dose response, artefact control for IDE activator project, biochemical, fluorescence polarization (AID 588442). The assay is classed as functional, cell-based. To be noted: Homo sapiens.
For assay [13], the target named is T6, Insulin-degrading enzyme. As to the kind of experiment: cellular IDE activation of Abeta substrate cleavage – fluorescence polarization, HEK cells, dose response (AID 588439). The class given is functional, cell-based.
Assay [14] relates to HEK293. As to the kind of experiment: membrane integrity loss in HEK cells – cell-based, fluorescence, cytotoxicity control for IDE activator project, dose response (AID 588440).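 Note: cytotoxicity by LDH release measuring loss of membrane integrity.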 To be noted: Homo sapiens. The class given is functional.

Calls of active or inactive are those of the source. Cut-off read from the data, not from the text of the source, for most assays here: actives have a measured IC50 and inactives only a lower limit. A value given as a limit tells only on which side of the number the result lay.

One may read the IC50 as the concentration at which inhibition is half-maximal. By EC50 is commonly meant the concentration at which the effect is half-maximal.

For `CC(=O)N(/N=C1\Sc2ccccc2C1=O)c1ccc(C)cc1C`, the IC50 in [1] was 23.3 µM (active); on Caspase-3 [2] it was 33 µM (active); in [3], 13 µM (active); at Caspase-3 [4], 7.42 µM (active); in [6] it was 21.5 µM (active); in assay [7], 5.49 µM (active). The results for the IC50 in assay [8] and in assay [9] were 86.8 µM (active) and 7.1 µM (active), respectively. Further, the EC50 is > 50 µM (not active) in the assay with HT-1080, < 0.2 µM (active) in assay [5] and < 0.16 µM (active) in assay [10].

Turning to `N#Cc1ccc(-c2nc(/C=C/c3ccc(F)cc3)no2)cc1`, the IC50 (in assay [1]; in [3]; on Caspase-3 [4]; in [7]) was > 99 µM (inactive) each time.

Turning to `Cc1ccc2nc(N(CCCN(C)C)C(=O)COc3ccc(Cl)cc3)sc2c1`, the EC50 on Insulin-degrading enzyme [11], with HEK293 [12] and at Insulin-degrading enzyme [13] was > 54.7 µM (inactive) in each case. The IC50 in the assay on HEK293 [14] is 46.4 µM (inactive).

The record behind these values is ChEMBL document CHEMBL1201862, “PubChem BioAssay data set” (2004).
